Test results as given in patent US10150747B2, “Compounds for the treatment of hepatitis C” (BRISTOL-MYERS SQUIBB COMPANY, priority 2015, dated 2018).
Where two headings read alike, the source gives them in different places.

Legend:
[1] = tested on: genotype 1b (Con-1) HCV replicon in Huh-7 cells; experiment: HCV replicon luciferase assay (1b replicon); format: cell-based; conditions: Hepatitis C virus
Procedure: The cell lines used to evaluate compounds consist of a human hepatocyte derived cell line (Huh-7) that constitutively expresses a genotype 1b (Con-1) HCV replicon or a genotype 1b (Con-1) HCV replicon with an asparagine replacing the cysteine at amino acid 316, or a genotype 2a (JFH-1) replicon, containing a Renilla luciferase reporter gene. These cells were maintained in Dulbecco's modified Eagle medium (DMEM) containing 10% FBS, 100 U/mL penicillin/streptomycin and 1.0 mg/mL G418.
HCV Replicon Luciferase Assay.
After 3 days incubation at 37° C., cells were analyzed for Renilla Luciferase activity using the EnduRen substrate (Promega cat #E6485) according to the manufacturer's directions. Briefly, the EnduRen substrate was diluted in DMEM and then added to the plates to a final concentration of 7.5 μM. The plates were incubated for at least 1 h at 37° C. then read on a Viewlux Imager (PerkinElmer) using a luminescence program.

[2] = target: HCV NS5B genotype 1b (Con1) (Hepatitis C virus genotype 1b (isolate Con1) (HCV), UniProt Q9WMX2); experiment: HCV NS5B RdRp enzyme assay (1b enzyme); format: biochemical; conditions: genotype 1b NS5B enzyme
HCV NS5B genotype 1b (Con1), sequence (Q9WMX2 2420-2992): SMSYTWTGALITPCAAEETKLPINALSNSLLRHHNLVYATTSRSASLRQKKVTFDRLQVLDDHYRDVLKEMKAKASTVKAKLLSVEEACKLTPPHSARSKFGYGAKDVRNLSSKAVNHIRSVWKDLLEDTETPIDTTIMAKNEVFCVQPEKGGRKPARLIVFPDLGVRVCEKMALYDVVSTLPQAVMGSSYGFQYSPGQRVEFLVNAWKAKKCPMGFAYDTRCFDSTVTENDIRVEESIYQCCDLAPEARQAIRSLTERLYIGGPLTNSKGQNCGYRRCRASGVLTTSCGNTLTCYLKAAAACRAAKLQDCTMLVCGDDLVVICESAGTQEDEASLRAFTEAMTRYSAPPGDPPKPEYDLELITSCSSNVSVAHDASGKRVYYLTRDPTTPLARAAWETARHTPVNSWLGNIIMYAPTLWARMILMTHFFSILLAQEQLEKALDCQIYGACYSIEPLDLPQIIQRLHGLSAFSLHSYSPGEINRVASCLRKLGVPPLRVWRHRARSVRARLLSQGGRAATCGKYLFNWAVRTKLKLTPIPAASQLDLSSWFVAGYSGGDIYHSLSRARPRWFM
Procedure: HCV NS5B RdRp Cloning, Expression, and Purification.
The cDNA encoding NS5B proteins of HCV genotype 1b (Con1), a genotype 1b variant with amino acid 316 mutated from cysteine to asparagine, and genotype 2a (JFH-1), were cloned into the pET21a expression vector. Each untagged protein was expressed with an 18 amino acid C-terminal truncation to enhance the solubility. The E. coli competent cell line BL21(DE3) was used for expression of the protein. Cultures were grown at 37° C. for ˜4 hours until the cultures reached an optical density of 2.0 at 600 nm. The cultures were cooled to 20° C. and induced with 1 mM IPTG. Fresh ampicillin was added to a final concentration of 50 μg/mL and the cells were grown overnight at 20° C.
The lysis buffer consisted of 20 mM Tris-HCl, pH 7.4, 500 mM NaCl, 0.5% triton X-100, 1 mM DTT, 1 mM EDTA, 20% glycerol, 0.5 mg/mL lysozyme, 10 mM MgCl2, 15 ug/mL deoxyribonuclease I, and Complete TM protease inhibitor tablets (Roche). After addition of the lysis buffer, frozen cell pellets were resuspended using a tissue homogenizer. To reduce the viscosity of the sample, aliquots of the lysate were sonicated on ice using a microtip attached to a Branson sonicator. The sonicated lysate was centrifuged at 100,000×g for 30 minutes at 4° C. and filtered through a 0.2 μm filter unit (Corning).
The protein was purified using two sequential chromatography steps: Heparin sepharose CL-6B and polyU sepharose 4B. The chromatography buffers were identical to the lysis buffer but contained no lysozyme, deoxyribonuclease I, MgCl2 or protease inhibitor and the NaCl concentration of the buffer was adjusted according to the requirements for charging the protein onto the column. Each column was eluted with a NaCl gradient which varied in length from 5-50 column volumes depending on the column type. […] The enzyme was aliquoted and stored at −80° C.
HCV NS5B RdRp Enzyme Assay.
An on-bead solid phase homogeneous assay was used in a 384-well format to assess NS5B inhibitors (WangY-K, Rigat K, Roberts S, and Gao M (2006) Anal Biochem, 359: 106-111). The biotinylated oligo dT12 primer was captured on streptavidin-coupled imaging beads (GE, RPNQ0261) by mixing primer and beads in 1× buffer and incubating at room temperature for three hours. Unbound primer was removed after centrifugation. The primer-bound beads were resuspended in 3× reaction mix (20 mM Hepes buffer, pH 7.5, dT primer coupled beads, poly A template, ^3H-UTP, and RNAse inhibitor (Promega N2515)). Compounds were serially diluted 1:3 in DMSO and aliquoted into assay plates. Equal volumes (5 μL) of water, 3× reaction mix, and enzyme in 3× assay buffer (60 mM Hepes buffer, pH 7.5, 7.5 mM MgCl2, 7.5 mM KCl, 3 mM DTT, 0.03 mg/mL BSA, 6% glycerol) were added to the diluted compound on the assay plate. Final concentration of components in 384-well assay: 0.36 nM template, 15 nM primer, 0.29 μM ^3H-UTP (0.3 μCi), 1.6 U/4 RNAse inhibitor, 7 nM NS5B enzyme, 0.01 mg/mL BSA, 1 mM DTT, and 0.33 μg/μL beads, 20 mM Hepes buffer, pH 7.5, 2.5 mM MgCl2, 2.5 mM KCl, and 0.1% DMSO.
Reactions were allowed to proceed for 24 hours at 30° C. and terminated by the addition of 50 mM EDTA (5 μL). After incubating for at least 15 minutes, plates were read on an Amersham LEADseeker multimodality imaging system.
IC50 values for compounds were determined using ten different [I]. IC50 values were calculated from the inhibition using the four-parameter logistic formula y=A+((B−A)/(1+((C/x)^D))), where A and B denote minimal and maximal % inhibition, respectively, C is the IC50, D is hill slope and x represents compound concentration.

[3] = 72 h, genotype 1b replicon, Huh-7, Renilla luciferase, 3 days incubation, read-out: EC50

Structure (SMILES)	EC50 [1, 3] [nM]	IC50 [2] [nM]	EC50 ([1]; Huh-7, 72 h) [nM]
CCOc1cc2oc(-c3ccc(F)cc3)c(C(=O)NC)c2cc1-c1ccc(OC)c(C(=O)NC2(c3ncccn3)CC2)c1 [Example 12, 6-Ethoxy-2-(4-fluorophenyl)-5-(4-methoxy-3-((1-(pyrimidin-2-yl)cyclopropyl)carbamoyl)phenyl)-N-methylbenzofuran-3-carboxamide]	4.2	1.89	–
CNC(=O)c1c(-c2ccc(F)cc2)oc2cc(OCC(F)F)c(-c3cccc(C(=O)NC(C)(C)c4ncon4)c3)cc12 [Example 19, 5-(3-((2-(1,2,4-Oxadiazol-3-yl)propan-2-yl)carbamoyl)phenyl)-6-(2,2-difluoroethoxy)-2-(4-fluorophenyl)-N-m ethylbenzofuran-3-carboxamide]	7.41	4.2	–
CNC(=O)c1c(-c2ccc(F)cc2)oc2cc(OCC(F)(F)F)c(-c3cccc(C(=O)NC(C)(C)c4ncon4)c3)cc12 [Example 21, 5-(3-((2-(1,2,4-oxadiazol-3-yl)propan-2-yl)carbamoyl)phenyl)-2-(4-fluorophenyl)-N-methyl-6-(2,2,2-trifluoroethoxy)benzofuran-3-carboxamide]	10	4.49	–
CCOc1cc2oc(-c3ccc(F)cc3)c(C(=O)NC)c2cc1-c1cnc(OC)c(C(=O)NC23CC(C2)C3)c1 [Example 15, N-(bicyclo[1.1.1]pentan-1-yl)-5-(6-ethoxy-2-(4-fluorophenyl)-3-(methylcarbamoyl)benzofuran-5-yl)-2-methoxynicotinamide]	7.03	2.48	–
CNC(=O)c1c(-c2ccc(F)cc2)oc2cc(OCC(F)(F)F)c(-c3cnc(OC)c(C(=O)NC4(c5ncccn5)CC4)c3)cc12 [Example 29, 5-(2-(4-Fluorophenyl)-3-(methylcarbamoyl)-6-(2,2,2-trifluoroethoxy)benzofuran-5-yl)-2-methoxy-N-(1-(pyrimidin-2-yl)cyclopropyl)nicotinamide]	4.57	2.95	–
CNC(=O)c1c(-c2ccc(F)cc2)oc2cc(OCC(F)F)c(-c3cccc(C(=O)NC4(c5ncccn5)CC4)c3)cc12 [Example 20, 6-(2,2-difluoroethoxy)-2-(4-fluorophenyl)-N-methyl-5-(3-((1-(pyrimidin-2-yl)cyclopropyl)carbamoyl)phenyl)benzofuran-3-carboxamide]	–	4.54	6.79
CNC(=O)c1c(-c2ccc(F)cc2)oc2cc(OCC(C)C)c(-c3ccc(OC)c(C(=O)NC(C)(C)c4ncon4)c3)cc12 [Example 26, 5-(3-((2-(1,2,4-oxadiazol-3-yl)propan-2-yl)carbamoyl)-4-methoxyphenyl)-2-(4-fluorophenyl)-6-isobutoxy-N-methylbenzofuran-3-carboxamide]	80	30	–
[2H]C([2H])([2H])Oc1ccc(-c2cc3c(C(=O)NC)c(-c4ccc(F)cc4)oc3cc2OCC)cc1C(=O)NC(C)(C)C#N [Example 28, 5-(3-((2-cyanopropan-2-yl)carbamoyl)-4-(methoxy-d3)phenyl)-6-ethoxy-2-(4-fluorophenyl)-N-methylbenzofuran-3-carboxamide]	2.01	2.04	–
CNC(=O)c1c(-c2ccc(F)cc2)oc2cc(OC(C)C)c(-c3ccc(OC)c(C(=O)NC(C)(C)c4ncon4)c3)cc12 [Example 23, 5-(3-((2-(1,2,4-Oxadiazol-3-yl)propan-2-yl)carbamoyl)-4-methoxyphenyl)-2-(4-fluorophenyl)-6-isopropoxy-N-methylbenzofuran-3-carboxamide]	10	7.14	–
CNC(=O)c1c(-c2ccc(F)cc2)oc2cc(OCC(F)(F)F)c(-c3ccc(OC)c(C(=O)NC(C)(C)c4ncon4)c3)cc12 [Example 18, 5-(3-((2-(1,2,4-oxadiazol-3-yl)propan-2-yl)carbamoyl)-4-methoxyphenyl)-2-(4-fluorophenyl)-N-methyl-6-(2,2,2-trifluoroethoxy)benzofuran-3-carboxamide]	2.85	2.83	–
CCOc1cc2oc(-c3ccc(F)cc3)c(C(=O)NC)c2cc1-c1ccc(CC)c(C(=O)NC(C)(C)c2ncon2)c1 [Example 24, 5-(3-((2-(1,2,4-oxadiazol-3-yl)propan-2-yl)carbamoyl)-4-ethylphenyl)-6-ethoxy-2-(4-fluorophenyl)-N-methylbenzofuran-3-carboxamide]	280	> 2500	–
CCOc1cc2oc(-c3ccc(F)cc3)c(C(=O)NC)c2cc1-c1ccc(OC)c(C(=O)NC23CC(C2)C3)c1 [Example 11, 5-(3-(Bicyclo[1.1.1]pentan-1-ylcarbamoyl)-4-methoxyphenyl)-6-ethoxy-2-(4-fluorophenyl)-N-methylbenzofuran-3-carboxamide]	9.63	–	–
CCOc1cc2oc(-c3ccc(F)cc3)c(C(=O)NC)c2cc1-c1cccc(C(=O)NC(C)(C)c2nc3ccncc3[nH]2)c1 [Example 32, 5-(3-((2-(3H-imidazo[4,5-c]pyridin-2-yl)propan-2-yl)carbamoyl)phenyl)-6-ethoxy-2-(4-fluorophenyl)-N-methylbenzofuran-3-carboxamide]	10	6.01	–
CNC(=O)c1c(-c2ccc(F)cc2)oc2cc(OCC(F)(F)F)c(-c3ccc(F)c(C(=O)NC4(c5ncccn5)CC4)c3)cc12 [Example 3, 5-(4-Fluoro-3-((1-(pyrimidin-2-yl)cyclopropyl)carbamoyl)phenyl)-2-(4-fluorophenyl)-N-methyl-6-(2,2,2-trifluoroethoxy)benzofuran-3-carboxamide]	6.7	4.38	–
[2H]C([2H])([2H])Oc1ncc(-c2cc3c(C(=O)NC)c(-c4ccc(F)cc4)oc3cc2OCC)cc1C(=O)NC(C)(C)C#N [Example 17, N-(2-cyanopropan-2-yl)-5-(6-ethoxy-2-(4-fluorophenyl)-3-(methylcarbamoyl)benzofuran-5-yl)-2-(methoxy-d3)nicotinamide]	–	1.84	2.8
CNC(=O)c1c(-c2ccc(F)cc2)oc2cc(OCC(F)(F)F)c(-c3cnc(OC)c(C(=O)NC45CC(C4)C5)c3)cc12 [Example 30, N-(Bicyclo[1.1.1]pentan-1-yl)-5-(2-(4-fluorophenyl)-3-(methylcarbamoyl)-6-(2,2,2-trifluoroethoxy)benzofuran-5-yl)-2-methoxynicotinamide]	10	–	–
CNC(=O)c1c(-c2ccc(F)cc2)oc2cc(OCC(F)(F)F)c(-c3cnc(OC)c(C(=O)NC(C)(C)c4ncon4)c3)cc12 [Example 31, N-(2-(1,2,4-Oxadiazol-3-yl)propan-2-yl)-5-(2-(4-fluorophenyl)-3-(methylcarbamoyl)-6-(2,2,2-trifluoroethoxy)benzofuran-5-yl)-2-methoxynicotinamide]	3.21	–	–
